# US20240041042A1, “1-(PYRIDYL)-5-AZINYLPYRAZOLE DERIVATIVES, AND THEIR USE FOR CONTROL OF UNDESIRED PLANT GROWTH” (Bayer Aktiengesellschaft, priority 2020, published 2024)
# Like-named read-outs stand apart in the source and are kept apart here.
# Assays:
# Format in all cases: in vivo
# [1] = system: Digitaria sanguinalis (DIGSA); assay: Post-emergence herbicidal action against DIGSA; settings: visual rating about 3 weeks after treatment
# How it was run: (§1)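 Values are percent visual activity (0% like control, 100% plants dead) after about 3 weeks in the greenhouse. Treatment: post-emergence spray at one-leaf stage, 600 l/ha spray volume, 0.5% additive, doses 320 g/ha or lower.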
# Zea mays (ZEAMX) = settings: crop plant compatibility; for Pre-emergence action against ZEAMX in %: 80 g/ha, in comparison to untreated controls; for Pre-emergence action against ZEAMX: 20 g/ha, effect vs untreated controls
# How it was run: (§2)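 Crop injury rated visually in percent against untreated plants roughly 3 weeks after treatment (0% no effect, 100% plants dead). Compounds, as WP or EC with 0.5% additive in 600 l/ha water, were applied to the covering soil right after sowing; greenhouse growth. Suffixes a, b, c denote different dosages.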
# [2] = system: Amaranthus retroflexus (AMARE); assay: Pre-emergence herbicidal action against AMARE; settings: visual scoring after about 3 weeks vs untreated controls
# How it was run: (§3)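 Pre-emergence soil-surface spray, WP/EC formulation, 0.5% additive, 600 l/ha water, rates of 320 g/ha or lower. Greenhouse, ~3 wk. Visual score, % of untreated control (100% = plants dead, 0% = like control).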
# [3] = system: Digitaria sanguinalis (DIGSA); assay: Pre-emergence herbicidal action against DIGSA
# How it was run: as §3
# [4] = system: Alopecurus myosuroides (ALOMY); assay: Pre-emergence herbicidal action against ALOMY; settings: scored visually after about 3 weeks, 100% = plants have died
# How it was run: as §3
# [5] = system: Alopecurus myosuroides (ALOMY); assay: Post-emergence herbicidal action against ALOMY; settings: visual rating about 3 weeks after treatment vs untreated controls (100% = plants have died, 0% = like control plants)
# How it was run: as §1
# [6] = system: Verconica persica (VERPE); assay: Pre-emergence herbicidal action against VERPE
# How it was run: as §3
# Oryza sativa (ORYSA) [7] = settings: crop plant compatibility; for Pre-emergence action against ORYSA: 20 g/ha, effect vs untreated controls
# How it was run: as §2
# Oryza sativa (ORYSA) [8] = settings: crop plant compatibility
# How it was run: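 Test crops were treated 2 to 3 weeks after sowing, once they reached one leaf, by spraying compound in water with 0.5% additive at 600 l/ha. Visual scoring compared them with untreated controls roughly 3 weeks on, and appendices a, b and c denote different doses.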
# [9] = 80 g/ha, visual scoring after about 3 weeks vs untreated controls
# [10] = 20 g/ha, effect vs untreated controls
# [11] = 80 g/ha, effect in comparison to untreated controls
# [12] = 320 g/ha, effect in comparison to untreated controls
SMILES,Pre-emergence action against ZEAMX in % (Zea mays (ZEAMX)) [%],"Pre-emergence action against ORYSA in % (Oryza sativa (ORYSA) [7]; pre-emergence, 80 g/ha, in comparison to untreated controls) [%]",Pre-emergence action against ORYSA (Oryza sativa (ORYSA) [7]) [%],Pre-emergence action against ZEAMX (Zea mays (ZEAMX)) [%],Post-emergence action against ORYSA in % (Oryza sativa (ORYSA) [8]; [10]) [%],Post-emergence action against ORYSA in % (Oryza sativa (ORYSA) [8]; [11]) [%],Post-emergence action against ORYSA in % (Oryza sativa (ORYSA) [8]; [12]) [%],Post-emergence action against DIGSA in % ([1]; 80 g/ha) [%],Post-emergence action against DIGSA in % ([1]; 320 g/ha) [%],Pre-emergence action against AMARE in % ([2]; 80 g/ha) [%],Pre-emergence action against AMARE in % ([2]; 320 g/ha) [%],"Pre-emergence action against DIGSA in % [3, 9] [%]",Pre-emergence action against DIGSA in % ([3]; dosage 320 g/ha) [%],Pre-emergence action against ALOMY ([4]; 80 g/ha) [%],Pre-emergence action against ALOMY ([4]; 320 g/ha) [%],Post-emergence action against ALOMY in % ([5]; 80 g/ha) [%],Post-emergence action against ALOMY in % ([5]; 320 g/ha) [%],Pre-emergence action against VERPE in % ([6]; dosage 80 g/ha) [%],Pre-emergence action against VERPE in % ([6]; dosage 320 g/ha) [%]
COCCOC(=O)COc1nn(-c2ccccn2)c(-c2ccc(F)nc2)c1Br [Example I-96],0,20,,,,,,,,90,100,,,80,100,90,90,90,90
COC(=O)COc1nn(-c2ncccc2F)c(-c2cncc(F)c2)c1Br [Example I-16],,,20,10,0,10,,,,100,100,100,100,100,100,90,90,,90
COC(=O)[C@H](C)COC(=O)COc1nn(-c2ccccn2)c(-c2cncc(F)c2)c1Cl [Example I-192],,,,,,0,,80,80,80,100,90,100,90,90,90,90,,90
O=C(O)COc1nn(-c2ccccn2)c(-c2cncnc2)c1Br [Example I-66],,,,,,10,20,,90,90,100,100,100,100,100,100,100,,100
CCOC(=O)COc1nn(-c2ccccn2)c(-c2ccc(F)nc2)c1Br [Example I-02],,,0,0,,,,,,100,100,,,100,90,80,100,,90
COC(=O)COc1nn(-c2ncccc2F)c(-c2ccc(F)nc2)c1Br [Example I-07],,,,,,0,,90,90,90,90,100,100,90,100,90,100,,100

# Now from value to compound, other results behind:
Pre-emergence action against ZEAMX in % (Zea mays (ZEAMX)) [%],"Pre-emergence action against ORYSA in % (Oryza sativa (ORYSA) [7]; pre-emergence, 80 g/ha, in comparison to untreated controls) [%]",Pre-emergence action against ORYSA (Oryza sativa (ORYSA) [7]) [%],Pre-emergence action against ZEAMX (Zea mays (ZEAMX)) [%],Post-emergence action against ORYSA in % (Oryza sativa (ORYSA) [8]; [10]) [%],Post-emergence action against ORYSA in % (Oryza sativa (ORYSA) [8]; [11]) [%],Post-emergence action against ORYSA in % (Oryza sativa (ORYSA) [8]; [12]) [%],SMILES,Post-emergence action against DIGSA in % ([1]; 80 g/ha) [%],Post-emergence action against DIGSA in % ([1]; 320 g/ha) [%],Pre-emergence action against AMARE in % ([2]; 80 g/ha) [%],Pre-emergence action against AMARE in % ([2]; 320 g/ha) [%],"Pre-emergence action against DIGSA in % [3, 9] [%]",Pre-emergence action against DIGSA in % ([3]; dosage 320 g/ha) [%],Pre-emergence action against ALOMY ([4]; 80 g/ha) [%],Pre-emergence action against ALOMY ([4]; 320 g/ha) [%],Post-emergence action against ALOMY in % ([5]; 80 g/ha) [%],Post-emergence action against ALOMY in % ([5]; 320 g/ha) [%],Pre-emergence action against VERPE in % ([6]; dosage 80 g/ha) [%],Pre-emergence action against VERPE in % ([6]; dosage 320 g/ha) [%]
20,,,,,,,C[C@@H](Oc1nn(-c2ncccc2F)c(-c2ccc(F)nc2)c1Br)C(=O)O [Example I-10],90,90,100,100,100,100,100,100,100,100,80,100
,,,,0,10,20,C[C@@H](Oc1nn(-c2ncccc2F)c(-c2ccc(F)nc2)c1Br)C(=O)O [Example I-18],90,90,100,100,100,100,100,100,90,100,90,100
,,0,,0,10,,O=C(O)COc1nn(-c2ncccc2F)c(-c2ccc(F)nc2)c1Br [Example I-17],90,90,100,100,100,100,100,100,90,90,,100
,,,,,10,,COCCOC(=O)COc1nn(-c2ncccc2C)c(-c2cncc(F)c2)c1Br [Example I-212],90,90,90,100,100,100,100,100,90,90,80,100
